According to patent publication US10711000B2 (Fronthera U.S. Pharmaceuticals LLC, priority 2018, dated 2020):
Read-outs that look alike come from different tables or passages of the source.

Target: T1, Autotaxin (Homo sapiens, UniProt Q13822)
T1 construct: from tissue; host or cells: pooled human plasma
Assay: LPA formation in pooled human plasma (ex vivo autotaxin inhibition)
Assay type: biochemical
Conditions: 2 hours incubation
Method in brief: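 Pooled human plasma incubated 2 h with various compound concentrations; LPA 18:2 and 20:4 quantified by LC/MS/MS (negative-ion MRM, LPA17:0 internal standard) after butanol extraction. Inhibition of LPA formation relative to untreated plasma; IC50 by non-linear regression.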

[1] = LPA 18:2 by LC/MS/MS, read-out: LPA formation (18:2) (IC50)
[2] = LPA 20:4 by LC/MS/MS, read-out: LPA formation (20:4) (IC50)

SMILES	IC50 [1]	IC50 [2]
CCc1nn2c(C)cc(N3CCC4(CN(C(=O)CO)C4)C3)cc2c1N(C)c1nc(-c2ccc(F)cc2)c(C#N)s1 [Example 52, 2-((2-ethyl-5-(2-(2-hydroxyacetyl)-2,6-diazaspiro[3.4]octan-6-yl)-7-methylpyrazolo[1,5-a]pyridin-3-yl)(methyl)amino)-4-(4-fluorophenyl)thiazole-5-carbonitrile]	100 to 500 nM	100 to 500 nM
CCc1nn2c(C)cc(N3CC4(CCN(C(=O)C(C)(C)O)C4)C3)cc2c1N(C)c1nc(-c2ccc(F)cc2)c(C#N)s1 [Example 53, 2-((2-ethyl-5-(6-(2-hydroxy-2-methylpropanoyl)-2,6-diazaspiro[3.4]octan-2-yl)-7-methylpyrazolo[1,5-a]pyridin-3-yl)(methyl)amino)-4-(4-fluorophenyl)thiazole-5-carbonitril]	≤ 100 nM	≤ 100 nM
CCc1nn2c(C)cc(N3CCC4(CN(C(=O)C5(O)CC5)C4)C3)cc2c1N(C)c1nc(-c2ccc(F)cc2)c(C#N)s1 [Example 54, 2-((2-ethyl-5-(2-(1-hydroxycyclopropane-1-carbonyl)-2,6-diazaspiro[3.4]octan-6-yl)-7-methylpyrazolo[1,5-a]pyridin-3-yl)(methyl)amino)-4-(4-fluorophenyl)thiazole-5-carbonitrile]	500 to 1000 nM	500 to 1000 nM
CCc1nn2c(C)cc(N3CCC4(CN(CC(O)CO)C4)C3)cc2c1N(C)c1nc(-c2ccc(F)cc2)c(C#N)s1 (stereo not drawn) [Example 55, 2-((5-(2-(2,3-dihydroxypropyl)-2,6-diazaspiro[3.4]octan-6-yl)-2-ethyl-7-methylpyrazolo[1,5-a]pyridin-3-yl)(methyl)amino)-4-(4-fluorophenyl)thiazole-5-carbonitrile]	100 to 500 nM	100 to 500 nM
CCc1nn2c(C)cc(N3CC4(CN(C(=O)C5(O)CCOCC5)C4)C3)cc2c1N(C)c1nc(-c2ccc(F)cc2)c(C#N)s1 [Example 56]	≤ 100 nM	≤ 100 nM
CCc1nn2c(C)cc(N3CC4(CN(C(=O)c5cnco5)C4)C3)cc2c1N(C)c1nc(-c2ccc(F)cc2)c(C#N)s1 [Example 57, 2-((2-ethyl-7-methyl-5-(6-(oxazole-5-carbonyl)-2,6-diazaspiro[3.3]heptan-2-yl)pyrazolo[1,5-a]pyridin-3-yl)(methyl)amino)-4-(4-fluorophenyl)thiazole-5-carbonitrile]	≤ 100 nM	≤ 100 nM
CCc1nn2c(C)cc(N3CC4(CN(C(=O)C(O)CO)C4)C3)cc2c1N(C)c1nc(-c2ccc(F)cc2)c(C#N)s1 (stereo not drawn) [Example 60, 2-((5-(6-(2,3-dihydroxypropanoyl)-2,6-diazaspiro[3.3]heptan-2-yl)-2-ethyl-7-methylpyrazolo[1,5-a]pyridin-3-yl)(methyl)amino)-4-(4-fluorophenyl)thiazole-5-carbonitrile]	≤ 100 nM	100 to 500 nM
CCc1nn2c(C)cc(N3CC4(CN(C(=O)C5(O)CC5)C4)C3)cc2c1N(C)c1nc(-c2ccc(F)cc2)c(C#N)s1 [Example 61, 2-((2-ethyl-5-(6-(1-hydroxycyclopropane-1-carbonyl)-2,6-diazaspiro[3.3]heptan-2-yl)-7-methylpyrazolo[1,5-a]pyridin-3-yl)(methyl)amino)-4-(4-fluorophenyl)thiazole-5-carbonitrile]	100 to 500 nM	100 to 500 nM
CCc1nn2c(C)cc(N3CC4(CN(C(=O)[C@H](C)O)C4)C3)cc2c1N(C)c1nc(-c2ccc(F)cc2)c(C#N)s1 [Example 62, (S)-2-((2-ethyl-5-(6-(2-hydroxypropanoyl)-2,6-diazaspiro[3.3]heptan-2-yl)-7-methylpyrazolo[1,5-a]pyridin-3-yl)(methyl)amino)-4-(4-fluorophenyl)thiazole-5-carbonitrile]	100 to 500 nM	100 to 500 nM
CCc1nn2c(C)cc(N3CC4(CN(C(=O)[C@@H](C)O)C4)C3)cc2c1N(C)c1nc(-c2ccc(F)cc2)c(C#N)s1 [Example 63, (R)-2-((2-ethyl-5-(6-(2-hydroxypropanoyl)-2,6-diazaspiro[3.3]heptan-2-yl)-7-methylpyrazolo[1,5-a]pyridin-3-yl)(methyl)amino)-4-(4-fluorophenyl)thiazole-5-carbonitrile]	100 to 500 nM	100 to 500 nM
CCc1nn2c(C)cc(N3CC4C(C3)C4NC(=O)[C@H]3CCOC3)cc2c1N(C)c1nc(-c2ccc(F)cc2)c(C#N)s1 (stereo partly drawn) [Example 64, (3S)—N-(3-(3-((5-cyano-4-(4-fluorophenyl)thiazol-2-yl)(methyl)amino)-2-ethyl-7-methylpyrazolo[1,5-a]pyridin-5-yl)-3-azabicyclo[3.1.0]hexan-6-yl)tetrahydrofuran-3-carboxamide]	100 to 500 nM	100 to 500 nM
CCc1nn2c(C)cc(N3CC4(CN(C(=O)c5ccco5)C4)C3)cc2c1N(C)c1nc(-c2ccc(F)cc2)c(C#N)s1 [Example 66, 2-((2-ethyl-5-(6-(furan-2-carbonyl)-2,6-diazaspiro[3.3]heptan-2-yl)-7-methylpyrazolo[1,5-a]pyridin-3-yl)(methyl)amino)-4-(4-fluorophenyl)thiazole-5-carbonitrile]	≤ 100 nM	≤ 100 nM
CCc1nn2c(C)cc(N3CCC4(CN(C[C@H](O)CO)C4)C3)cc2c1N(C)c1nc(-c2ccc(F)cc2)c(C#N)s1 [Example 68, (S)-2-((5-(2-(2,3-dihydroxypropyl)-2,6-diazaspiro[3.4]octan-6-yl)-2-ethyl-7-methylpyrazolo[1,5-a]pyridin-3-yl)(methyl)amino)-4-(4-fluorophenyl)thiazole-5-carbonitrile]	100 to 500 nM	100 to 500 nM
CCc1nn2c(C)cc(N3CCC4(CN(C[C@@H](O)CO)C4)C3)cc2c1N(C)c1nc(-c2ccc(F)cc2)c(C#N)s1 [Example 69, (R)-2-((5-(2-(2,3-dihydroxypropyl)-2,6-diazaspiro[3.4]octan-6-yl)-2-ethyl-7-methylpyrazolo[1,5-a]pyridin-3-yl)(methyl)amino)-4-(4-fluorophenyl)thiazole-5-carbonitrile]	100 to 500 nM	100 to 500 nM
CCc1nn2c(C)cc(N3CC4(CN(C(=O)c5ccon5)C4)C3)cc2c1N(C)c1nc(-c2ccc(F)cc2)c(C#N)s1 [Example 70, 2-((2-ethyl-5-(6-(isoxazole-3-carbonyl)-2,6-diazaspiro[3.3]heptan-2-yl)-7-methylpyrazolo[1,5-a]pyridin-3-yl)(methyl)amino)-4-(4-fluorophenyl)thiazole-5-carbonitrile]	100 to 500 nM	100 to 500 nM
CCc1nn2c(C)cc(N3CC4(C3)CN(S(C)(=O)=O)C4)cc2c1N(C)c1nc(-c2ccc(F)cc2)c(C#N)s1 [Example 71]	100 to 500 nM	100 to 500 nM
CCc1nn2c(C)cc(-c3cnn(C[C@@H](O)CO)c3)cc2c1N(C)c1nc(-c2ccc(F)cc2)c(C#N)s1 [Example 72, (R)-2-((5-(1-(2,3-dihydroxypropyl)-1H-pyrazol-4-yl)-2-ethyl-7-methylpyrazolo[1,5-a]pyridin-3-yl)(methyl)amino)-4-(4-fluorophenyl)thiazole-5-carbonitrile]	> 1000 nM	> 1000 nM
Cc1cc(N2CC3(CN(C(=O)C(C)(C)O)C3)C2)cc2c(N(C)c3nc(-c4ccc(F)cc4)c(C#N)s3)c(C3CC3)nn12 [Example 77, 2-((2-cyclopropyl-5-(6-(2-hydroxy-2-methylpropanoyl)-2,6-diazaspiro[3.3]heptan-2-yl)-7-methylpyrazolo[1,5-a]pyridin-3-yl)(methyl)amino)-4-(4-fluorophenyl)thiazole-5-carbonitrile]	≤ 100 nM	≤ 100 nM
Cc1cc(N2CC3(CN(C(=O)[C@H]4CCOC4)C3)C2)cc2c(N(C)c3nc(-c4ccc(F)cc4)c(C#N)s3)c(C3CC3)nn12 [Example 78, (S)-2-((2-cyclopropyl-7-methyl-5-(6-(tetrahydrofuran-3-carbonyl)-2,6-diazaspiro[3.3]heptan-2-yl)pyrazolo[1,5-a]pyridin-3-yl)(methyl)amino)-4-(4-fluorophenyl)thiazole-5-carbonitrile]	≤ 100 nM	≤ 100 nM
Cc1cc(N2CCN(CC(N)=O)CC2)cc2c(N(C)c3nc(-c4ccc(F)cc4)c(C#N)s3)c(C3CC3)nn12 [Example 79]	500 to 1000 nM	500 to 1000 nM
Cc1cc(N2CCN(CC(=O)O)CC2)cc2c(N(C)c3nc(-c4ccc(F)cc4)c(C#N)s3)c(C3CC3)nn12 [Example 80, 2-(4-(3-((5-cyano-4-(4-fluorophenyl)thiazol-2-yl)(methyl)amino)-2-cyclopropyl-7-methylpyrazolo[1,5-a]pyridin-5-yl)piperazin-1-yl)acetic acid]	> 1000 nM	> 1000 nM
Cc1cc(N2CCN(C[C@@H](O)CO)CC2)cc2c(N(C)c3nc(-c4ccc(F)cc4)c(C#N)s3)c(C3CC3)nn12 [Example 82, (R)-2-((2-cyclopropyl-5-(4-(2,3-dihydroxypropyl)piperazin-1-yl)-7-methylpyrazolo[1,5-a]pyridin-3-yl)(methyl)amino)-4-(4-fluorophenyl)thiazole-5-carbonitrile]	100 to 500 nM	100 to 500 nM
Cc1cc(N2CCN(C[C@H](O)CO)CC2)cc2c(N(C)c3nc(-c4ccc(F)cc4)c(C#N)s3)c(C3CC3)nn12 [Example 83, (S)-2-((2-cyclopropyl-5-(4-(2,3-dihydroxypropyl)piperazin-1-yl)-7-methylpyrazolo[1,5-a]pyridin-3-yl)(methyl)amino)-4-(4-fluorophenyl)thiazole-5-carbonitrile]	500 to 1000 nM	500 to 1000 nM
Cc1cc(N2CC3(CN(C(=O)C4CN(C)C4)C3)C2)cc2c(N(C)c3nc(-c4ccc(F)cc4)c(C#N)s3)c(C3CC3)nn12 [Example 84, 2-((2-cyclopropyl-7-methyl-5-(6-(1-methylazetidine-3-carbonyl)-2,6-diazaspiro[3.3]heptan-2-yl)pyrazolo[1,5-a]pyridin-3-yl)(methyl)amino)-4-(4-fluorophenyl)thiazole-5-carbonitrile]	≤ 100 nM	≤ 100 nM
